A short description of data set [1]: Coating stability assay: coated substrates incubated overnight in PBS at 36° C. Format: physicochemical. Here is the method:
Coating Compositions and Stability Assays. A macrocyclic compound (1 mg/mL) was dissolved in DMSO. To this solution was added to 10 mM to 1.5 M salts in aqueous buffer (pH 4-10). Various substrates were coated by dipping the substrates in the coating mixture (e.g., see FIGS. 12-16) and the stability of the coating compositions were tested by incubating the coated substrates in PBS at 36° C. overnight (e.g., see FIG. 7-16). […] For example, 1 mg/mL of the arene were dissolved in DMSO (10 volume % of the total coating solution). To this solution the buffered aqueous solution containing the salt of choice and the buffer (90% of total coating solution) was added. Then the pH was adjusted using HCl or NaOH solutions. The solution was transferred to a glass vial and the different substrates where added. The vial was sealed and placed on a rocking platform for 24 h. The substrate was rinsed with DI H2O then dried with a N2 flow. Buffers used included Na2CO3 (pH 11), bicine (ph 8-9), bis-tris (pH 6-7), tris (pH 7), sodium acetate (pH 4-5). The Buffer concentration used were between 0.1 and 2.2 M. Salt concentration used were between 0 and 1.5 M.

Data set [2] in a line: Sessile Contact Angle / wettability of coated PDMS. The format is physicochemical. Here is the method: Sessile Contact Angle: 2 μL drops were placed on planar samples prepared as in the previous section. Contact angles were measured using Ramé-Hart Droplmage analysis software and hardware setup.

From US10995225B2, “Macrocyclic polyphenols for universal coatings” (The Regents of the University of California, priority 2016, dated 2021) come the findings set out here.

Take `Oc1ccc(C2c3cc(c(O)cc3O)C(c3ccc(O)c(O)c3)c3cc(c(O)cc3O)C(c3ccc(O)c(O)c3)c3cc(c(O)cc3O)C(c3ccc(O)c(O)c3)c3cc2c(O)cc3O)cc1O` [D-D macrocycle]: the “optimal pH for coating stability” value in data set [1] (0.2M MgCl2 in Bicine buffer) came to 8.5; in data set [1] (pH screen, MgCl2 salt), 8.0. In addition, the “optimal salt concentration for coating stability” value in data set [1] (CaCl2 in Gly buffer) amounted to 0.5 M; in data set [1] (MgCl2, pH 8.5, Bicine buffer) it was 0.5 M.
Take `Oc1cccc(O)c1O` [pyrogallol]: the “wettability of PDMS” value in data set [2] is reported as “increase the wettability of PDMS”.
